In PMC7790557, “Pleiotropic Properties of Amphiphilic Dihydropyridines, Dihydropyridones, and Aminovinylcarbonyl Compounds” (Oxidative Medicine and Cellular Longevity, 2020):
Like-named read-outs stand apart in the source and are kept apart here.

Assays:
[1] = test system: HT-1080 (human lung fibrosarcoma); experiment: Cytotoxicity, MTT assay, HT-1080; format: cell-based; conditions: Homo sapiens, read-out: HT-1080 IC50 (MTT)
Description: (§1) Reduction takes place only when mitochondrial reductase enzymes are active, and therefore, conversion is directly related to the number of viable cells which can be quantified by the absorbance of the solution (between λ = 500 and 600 nm) using a spectrophotometer.

[2] = test system: MH-22A (mouse hepatoma); experiment: Cytotoxicity, crystal violet (CV) assay, MH-22A; format: cell-based; conditions: Mus musculus, read-out: MH-22A IC50 (CV)
Procedure: (§2) After incubation, the staining solution was removed. The cells were washed 4 times with water.

[3] = test system: MH-22A (mouse hepatoma); experiment: Cytotoxicity, MTT assay, MH-22A; format: cell-based; conditions: Mus musculus, read-out: MH-22A IC50 (MTT)
Description: as §1

[4] = test system: NIH3T3; experiment: in vitro; conditions: for LD50 (calculated, NIH3T3): mouse
Description: (§3) Data from the in vitro tests were used for estimating the starting dose for acute oral systemic toxicity tests in the rodent. The in vivo starting dose is an estimated LD50 value calculated by inserting the in vitroIC50 value into a regression formula: log LD50 (mM/kg) = 0.439 log IC50 (mM) + 0.621 [23–25]. […] Using an alternative in vitro method allows the comparison between possibly toxic new compounds and selecting compounds for further study vastly reducing the number of animal experiments.
(§4) Additionally, the compound influence on “normal” mouse fibroblasts (NIH3T3) was estimated for the studies of structure-activity relationships and exploration of the effect of substituents.

[5] = test system: HT-1080 (human lung fibrosarcoma); experiment: Cytotoxicity, crystal violet (CV) assay, HT-1080; conditions: Homo sapiens, HT-1080, 72 h, read-out: HT-1080 IC50 (CV)
[6] = test system: NIH3T3 (mouse embryonic fibroblast); experiment: Basal cytotoxicity test, Neutral Red Uptake (NRU) assay; conditions: for IC50: Mus musculus
Procedure: The NRU cytotoxicity assay procedure is based on the ability of viable cells to incorporate and bind neutral red, a supravital dye.
Balb/c NIH 3T3 (mouse Swiss albino embryo fibroblast, ATCC® CRL-1658™) cells (9000 cells/well) were placed into 96-well plates for 24 h in Dulbecco's modified Eagle's medium (DMEM) containing 5% fetal bovine serum. Then, the cells were exposed to the test compound over a range of seven concentrations (1000, 316, 100, 31, 10, 3, and 1 μg/ml) for 24 h. Untreated cells were used as a control. After 24 h, the medium was removed from all plates. Then, 150 μl of neutral red solution was added (0.05 mg/ml NR in DMEM 24 h preincubated at 37°C and then filtered before use through a 0.22 μm syringe filter). Plates were incubated for 3 h, and then, the cells were washed three times with PBS. The dye within viable cells was released by extraction with a mixture of acetic acid, ethanol, and water (1 : 50 : 49). The absorbance of neutral red was measured using a spectrophotometer multiplate reader (Tecan Infinite M1000) at 540 nm. The optical density (OD) was calculated using the following formula: OD (treated cells) × 100/OD (control cells). The IC50 values were calculated using the GraphPad Prism® 3.0 program.

[7] = Cytotoxicity, crystal violet (CV) assay, HT-1080; conditions: human, HT-1080 cells (fibrosarcoma)
[8] = in vitro; format: cell-based; conditions: human and mouse; summarises both cell lines, CV and MTT; read-out: cytotoxicity on cancer cell lines HT-1080 and MH-22A
Procedure: as §2

[9] = Electrochemical oxidation potentials, cyclic voltammetry; format: physicochemical; conditions: glassy carbon electrode, dry acetonitrile; for Oxidation potential E^ox: Table 4, vs Ag/Ag+, 0.1 M TBABF4, tested as perchlorates; for electrooxidation potential: cyclic voltammetry
Procedure: A stationary glassy carbon disk electrode (d = 0.5 mm) served as the working electrode, while the counterelectrode was a Pt wire. The oxidation potentials were measured relative to a Ag/Ag^+ reference electrode. Acetonitrile was dried over P2O5 and distilled; the distillate was stored over CaH2 and redistilled just before use. Recrystallized tetrabutylammonium tetrafluoroborate (TBABF4) was used as a supporting electrolyte at 0.1 M concentration.
The electrochemical oxidation of the selected compounds studied in this work was performed by cyclic voltammetry on a stationary glassy carbon electrode in dry acetonitrile; the data is presented in Table 4. The perchlorates of the tested amphiphiles were obtained from the corresponding bromides by treating their abs. MeOH solutions with excess of conc. HClO4 according to the procedure elaborated by Turovska et al..

[10] = in vitro; conditions: mouse, NIH3T3 LD50, Table 3; calculated from NIH3T3 IC50 by regression formula
Description: as §3, §4

[11] = HT-1080, Table 1, 72 h exposure
[12] = NIH3T3, 24 h, read-out: NIH3T3 IC50 (NR)
[13] = NIH3T3, 24 h, read-out: NIH3T3 IC50 (NR), Table 1, 24 h exposure

| SMILES | IC50 [1, 11] [µg/mL] | IC50 ([2]; Table 1, 72 h exposure) [µg/mL] | IC50 ([3]; Table 1, 72 h exposure) [µg/mL] | LD50 (calculated, NIH3T3) [4] [mg/kg] | IC50 [5] [µg/mL] | IC50 [6, 12] [µg/mL] | IC50 [6, 13] [µg/mL] | further results |
| --- | --- | --- | --- | --- | --- | --- | --- | --- |
| CCOC(=O)C1=C(C[n+]2ccc(C)cc2)NC(C[n+]2ccc(C)cc2)=C(C(=O)OCC)C1c1ccccc1.[Br-].[Br-] [compound 2, 1,1'-((3,5-Bis(ethoxycarbonyl)-4-phenyl-1,4-dihydropyridine-2,6-diyl)bis(methylene))-bis(4-methylpyridin-1-ium) dibromide] | > 740 | > 100 | > 100 | > 2000 | > 100 | > 1000 |  |  |
| CCOC(=O)C1=C(C[n+]2ccccc2)NC(C[n+]2ccccc2)=C(C(=O)OCC)C1c1ccccc1C(F)(F)F.[Br-].[Br-] [compound 6, 1,1'-((3,5-Bis(ethoxycarbonyl)-4-(2-(trifluoromethyl)phenyl)-1,4-dihydropyridine-2,6-diyl)bis(methylene))bis(pyridin-1-ium) dibromide] | > 100 | > 100 | > 100 | > 2000 | > 100 | > 1000 |  |  |
| CCCOCOC(=O)C1=C(C[n+]2ccccc2)NC(C[n+]2ccccc2)=C(C(=O)OCOCCC)C1c1ccccc1OC(F)F.[Br-].[Br-] [compound 7, 1,1'-((4-(2-(Difluoromethoxy)phenyl)-3,5-bis((propoxymethoxy)carbonyl)-1,4-dihydropyridine-2,6-diyl)bis(methylene))bis(pyridin-1-ium) dibromide] | > 100 | > 100 | > 100 | > 2000 | > 100 | > 1000 |  |  |
| CCOC(=O)C1=C(C[n+]2ccccc2)NC(C[n+]2ccccc2)=C(C(=O)OCC)C1C(=O)OC.[Br-].[Br-] [compound 8, 1,1'-((3,5-Bis(ethoxycarbonyl)-4-(methoxycarbonyl)-1,4-dihydropyridine-2,6-diyl)-bis(methylene))bis(pyridin-1-ium) dibromide] | > 100 | > 100 | > 100 | > 2000 | > 100 | > 1000 |  |  |
| CCCCCCCCCCCCOC(=O)C1=C(C[n+]2ccccc2)NC(C[n+]2ccccc2)=C(C(=O)OCCCCCCCCCCCC)C1c1ccccc1 [compound 11, 1,1'-((3,5-Bis((dodecyloxy)carbonyl)-4-phenyl-1,4-dihydropyridine-2,6-diyl)bis(methylene))bis(pyridin-1-ium) ditetrafluoroborate] | 28 ± 9 | 30 ± 6 | 30 ± 9 |  | 31 ± 4 |  | 47 ± 8 | IC50 at 72 h [7]: ~30 µg/mL |
| CCCCCCCCCCCCOC(=O)C1=C(C[N+](C)(C)C2CCCCC2)NC(C[N+](C)(C)C2CCCCC2)=C(C(=O)OCCCCCCCCCCCC)C1c1ccccc1.[O-][Cl+3]([O-])([O-])[O-].[O-][Cl+3]([O-])([O-])[O-] [compound 17, N,N'-((3,5-Bis((dodecyloxy)carbonyl)-4-phenyl-1,4-dihydropyridine-2,6-diyl)bis(methylene))bis(N,N-dimethylcyclohexanaminium) diperchlorate] | 23 ± 3 | 54 ± 16 | 35 ± 9 |  | 35 ± 9 |  | 59 ± 12 | IC50 [8]: 23 to 54 µg/mL |
| CCCCCCCCCCCCOC(=O)C1=C(C[n+]2ccccc2)NC(C[n+]2ccccc2)=C(C(=O)OCCCCC(F)(F)C(F)(F)C(F)(F)C(F)(F)C(F)(F)C(F)(F)C(F)(F)C(F)(F)F)C1c1ccccc1 (stereo not shown) [compound 23, Dodecyl 5,5,6,6,7,7,8,8,9,9,10,10,11,11,12,12,12-heptadecafluorododecyl 1,4-dihydro-2,6-dimethyl-4-phenylpyridine-3,5-dicarboxylate-2,6-dipyridinium dibromide] | 47 ± 8 | 47 ± 2 | 75 ± 11 |  | 50 ± 6 |  | 477 ± 25 | Oxidation potential E^ox [9]: 1.70 V; electrooxidation potential [9]: 1.69–1.70 V; IC50 [8]: 47 to 75 µg/mL |
| O=C(OCCCCC(F)(F)C(F)(F)C(F)(F)C(F)(F)C(F)(F)C(F)(F)C(F)(F)C(F)(F)F)C1=C(C[n+]2ccccc2)NC(C[n+]2ccccc2)=C(C(=O)OCCCCC(F)(F)C(F)(F)C(F)(F)C(F)(F)C(F)(F)C(F)(F)C(F)(F)C(F)(F)F)C1c1ccccc1 [compound 24, Bis(5,5,6,6,7,7,8,8,9,9,10,10,11,11,12,12,12-heptadecafluorododecyl) 1,4-dihydro-2,6-dimethyl-4-phenylpyridine-3,5-dicarboxylate-2,6-dipyridinium bromide] | 100 ± 9 | > 100 | > 100 |  | 100 ± 11 |  | > 1000 | Oxidation potential E^ox [9]: 1.69 V; electrooxidation potential [9]: 1.69–1.70 V; IC50 [8]: ~100 µg/mL |
| CCCCCCCCCCCCOC(=O)C1=C(C[n+]2ccccc2)NC(C[n+]2ccccc2)=C(C(=O)OCCCCCCCCCCCC)C1c1ccc(C2C(C(=O)OCCCCCCCCCCCC)=C(C[n+]3ccccc3)NC(C[n+]3ccccc3)=C2C(=O)OCCCCCCCCCCCC)cc1.[Br-].[Br-].[Br-].[Br-] [compound 26, 1,1',1'',1'''-((1,4-Phenylenebis(3,5-bis((dodecyloxy)carbonyl)-1,4-dihydropyridine-4,2,6-triyl))tetrakis(methylene))tetrakis(pyridin-1-ium) tetrabromide] |  |  |  |  | 12 ± 4 | 717 ± 56 |  | IC50 ([1]; HT-1080, 72 h): 14 ± 2 µg/mL; IC50 ([2]; 72 h): 27 ± 6 µg/mL; IC50 ([3]; 72 h): 21 ± 4 µg/mL; IC50 at 72 h [8]: 12 to 27 µg/mL |
| O=C1CC(c2ccccc2)C(C(=O)OCCCCC(F)(F)C(F)(F)C(F)(F)C(F)(F)C(F)(F)C(F)(F)C(F)(F)C(F)(F)F)=C([P+](c2ccccc2)(c2ccccc2)c2ccccc2)N1.[Br-] (stereo not shown) [compound 30, (3-(((5,5,6,6,7,7,8,8,9,9,10,10,11,11,12,12,12-Heptadecafluorododecyl)oxy)carbonyl)-6-oxo-4-phenyl-1,4,5,6-tetrahydropyridin-2-yl)triphenylphosphonium bromide] |  |  |  |  | 10 ± 2 |  |  | IC50 ([1]; HT-1080, Table 2, 72 h exposure): 9 ± 2 µg/mL; IC50 ([2]; Table 2, 72 h exposure): 30 ± 11 µg/mL; IC50 ([3]; Table 2, 72 h exposure): 39 ± 5 µg/mL; times less cytotoxic than dihydropyridone 31 in the NIH3T3 cells ([4]; from LD50 1779 mg/kg versus 604 mg/kg): about 3 times; IC50 ([6]; NIH3T3, 24 h, read-out: NIH3T3 IC50 (NR), Table 2, 24 h exposure): 127 ± 11 µg/mL |
| CCCCCCCCCCCCCCCCOC(=O)/C=C(\N)C[N+](C)(C)CCCCCCCCCCCC [compound 44, (Z,E)-N-(2-Amino-4-(hexadecyloxy)-4-oxobut-2-en-1-yl)-N,N-dimethyldodecan-1-aminium bromide] |  |  |  |  | 3 ± 0.4 |  |  | IC50 ([1]; HT-1080, Table 3, 72 h exposure): 3 ± 0.3 µg/mL; IC50 ([2]; Table 3, 72 h exposure): 25 ± 3 µg/mL; IC50 ([3]; Table 3, 72 h exposure): 28 ± 6 µg/mL; NIH3T3 LD50 ([4]; Table 3, calculated from NIH3T3 IC50 by regression formula): 697 mg/kg; Oxidation potential E^ox [9]: 1.24 V; electrooxidation potential [9]: 1.24 V; IC50 ([6]; NIH3T3, read-out: IC50 in NIH3T3 cell lines): ~30 µg/mL; NIH3T3 IC50 (NR) ([6]; Table 3, 24 h exposure): 31 ± 8 µg/mL |
| CCCCCCCCCCCCCCCCOC(=O)/C=C(\N)C[N+](C)(C)CCCCCCCCCCCC [compound 45, (Z,E)-N-(2-Amino-4-(hexadecyloxy)-4-oxobut-2-en-1-yl)-N,N-dimethyldodecan-1-aminium chloride] |  |  |  |  |  |  |  | LD50 [10]: 573 mg/kg; IC50 in NIH3T3 cell lines [6]: around 30 μg/ml; IC50 ([6]; NIH3T3, 24 h, read-out: NIH3T3 IC50 (NR), Table 3, 24 h exposure): 25 ± 9 µg/mL |
